What was measured:
Salmonella TA104 = assay: Salmonella plate-incorporation mutagenicity assay, strain TA104, with S9 mix; assay type: cell-based
strain TA100 = assay type: cell-based, Salmonella; conditions: TA100 liquid-suspension, 5 µg/ml
[1] = tested on: DNA from Salmonella TA100; assay: Abasic sites by aldehydic-site assay in DNA of treated TA100; assay type: cell-based; conditions: TA100, 5 µg/ml; DMSO 5.9 ± 0.33
Salmonella TA98 = assay: Salmonella plate-incorporation mutagenicity assay, strain TA98, with S9 mix; assay type: cell-based
Salmonella TA100 = assay: Salmonella plate-incorporation mutagenicity assay, strain TA100; assay type: cell-based
[2] = tested on: DNA from Salmonella TA100; assay: Stable DNA adducts by 32P-postlabeling in DNA of treated TA100; assay type: cell-based; conditions: TA100, 5 µg/ml; DMSO 0.024 ± 0.000

`O[C@@H]1C=Cc2c(ccc3ccc4ccsc4c23)[C@H]1O` (racemic) [P[4,3-b]T 8,9-diol, (±)-trans-8,9-Dihydrophenanthro[4,3-b]thiophene 8,9 diol-] was tested, and the Rev/plate (Salmonella TA104; TA104 +S9, Test 1, 0.5 µg/plate, zero-dose 379/400/370) was 700/693, the Rev/plate (Salmonella TA104; TA104 +S9, Test 1, 1 µg/plate, zero-dose 379/400/370) was 1035/1060 and the Rev/plate (Salmonella TA104; TA104 +S9, Test 1, 2.5 µg/plate, zero-dose 379/400/370) was 1698/1615. The Rev/plate (Salmonella TA104; TA104 +S9, Test 1, 5 µg/plate, zero-dose 379/400/370) was 1986/1995, the Rev/plate (Salmonella TA104; TA104 +S9, Test 3, 0.5 µg/plate, zero-dose 402/395/336) was 824/707 and the Rev/plate (Salmonella TA104; TA104 +S9, Test 3, 1 µg/plate, zero-dose 402/395/336) was 1210/1178. The Rev/plate (Salmonella TA104; TA104 +S9, Test 3, 2.5 µg/plate, zero-dose 402/395/336) was 1827/1822, the Rev/plate (Salmonella TA104; TA104 +S9, Test 3, 5 µg/plate, zero-dose 402/395/336) was 1980/1970 and the “Mutagenic potency, Revertants/µg ± S.E., TA104” value (Salmonella TA104; plate-incorporation, +S9) was 577 ± 63 rev/µg. The “Mutagenicity call TA104” value (Salmonella TA104; plate-incorporation, +S9) was “(+) (Called mutagenic (+) based on showing reproducible, dose-related increases in rev/plate that reached or exceeded 2-fold relative to zero-dose controls)”, the “Fold increase in mutant frequency relative to DMSO-treated cells” value (strain TA100) was 6.1 fold and the “Rev/10^6 survivors” value (strain TA100; DMSO 0.8) was 4.9 Rev/10^6 survivors. The Percent survival (strain TA100; DMSO 100) was 47%, the “Abasic sites/10^5 nucleotides ± S.E” value [1] was 5.5 ± 0.16 sites/10^5 nucleotides and the Rev/plate (Salmonella TA98; TA98 +S9, Test 1, 2 µg/plate, zero-dose 33/40/39) was 73 rev/plate. For the same compound, the Rev/plate (Salmonella TA98; TA98 +S9, Test 1, 5 µg/plate, zero-dose 33/40/39) was 116 rev/plate, the Rev/plate (Salmonella TA98; TA98 +S9, Test 1, 10 µg/plate, zero-dose 33/40/39) was 140 rev/plate and the Rev/plate (Salmonella TA98; TA98 +S9, Test 1, 20 µg/plate, zero-dose 33/40/39) was 229 rev/plate. For the same compound, the Rev/plate (Salmonella TA98; TA98 +S9, Test 1, 40 µg/plate, zero-dose 33/40/39) was 435 rev/plate, the Rev/plate (Salmonella TA98; TA98 +S9, Test 1, 80 µg/plate, zero-dose 33/40/39) was 578 rev/plate and the Rev/plate (Salmonella TA98; TA98 +S9, Test 2, 10 µg/plate, zero-dose 43/41/30) was 167/151. For the same compound, the Rev/plate (Salmonella TA98; TA98 +S9, Test 2, 20 µg/plate, zero-dose 43/41/30) was 127/225, the Rev/plate (Salmonella TA98; TA98 +S9, Test 2, 40 µg/plate, zero-dose 43/41/30) was 383/448 and the Rev/plate (Salmonella TA98; TA98 +S9, Test 2, 80 µg/plate, zero-dose 43/41/30) was 479/475. For the same compound, the Rev/plate (Salmonella TA98; TA98 +S9, Test 3, 10 µg/plate, zero-dose 49/50/50) was 251/249, the Rev/plate (Salmonella TA98; TA98 +S9, Test 3, 20 µg/plate, zero-dose 49/50/50) was 298/321 and the Rev/plate (Salmonella TA98; TA98 +S9, Test 3, 40 µg/plate, zero-dose 49/50/50) was 561/624. For the same compound, the Rev/plate (Salmonella TA98; TA98 +S9, Test 3, 80 µg/plate, zero-dose 49/50/50) was 828/725, the “Mutagenic potency, Revertants/µg ± S.E., TA98” value (Salmonella TA98; plate-incorporation, +S9) was 11.0 ± 1.6 rev/µg and the “Mutagenicity call TA98” value (Salmonella TA98; plate-incorporation, +S9) was “(+) (Called mutagenic (+) based on showing reproducible, dose-related increases in rev/plate that reached or exceeded 2-fold relative to zero-dose controls)”. For the same compound, the Rev/plate (Salmonella TA100; TA100 +S9, Test 1, 2 µg/plate, zero-dose 99/110/110) was 660 rev/plate, the Rev/plate (Salmonella TA100; TA100 +S9, Test 1, 5 µg/plate, zero-dose 99/110/110) was 938 rev/plate and the Rev/plate (Salmonella TA100; TA100 +S9, Test 1, 10 µg/plate, zero-dose 99/110/110) was 1120 rev/plate. The Rev/plate (Salmonella TA100; TA100 +S9, Test 1, 20 µg/plate, zero-dose 99/110/110) was 1175 rev/plate, the Rev/plate (Salmonella TA100; TA100 +S9, Test 1, 40 µg/plate, zero-dose 99/110/110) was 1027 rev/plate and the Rev/plate (Salmonella TA100; TA100 +S9, Test 1, 80 µg/plate, zero-dose 99/110/110) was 673 rev/plate. For the same compound, the Rev/plate (Salmonella TA100; TA100 +S9, Test 2, 0.5 µg/plate, zero-dose 84/78/80) was 205/219, the Rev/plate (Salmonella TA100; TA100 +S9, Test 2, 1 µg/plate, zero-dose 84/78/80) was 318/270 and the Rev/plate (Salmonella TA100; TA100 +S9, Test 2, 2.5 µg/plate, zero-dose 84/78/80) was 703/655. The Rev/plate (Salmonella TA100; TA100 +S9, Test 2, 5 µg/plate, zero-dose 84/78/80) was 857/907, the Rev/plate (Salmonella TA100; TA100 +S9, Test 3, 0.5 µg/plate, zero-dose 127/118/125) was 412/353 and the Rev/plate (Salmonella TA100; TA100 +S9, Test 3, 1 µg/plate, zero-dose 127/118/125) was 610/511. For the same compound, the Rev/plate (Salmonella TA100; TA100 +S9, Test 3, 2.5 µg/plate, zero-dose 127/118/125) was 951/868, the Rev/plate (Salmonella TA100; TA100 +S9, Test 3, 5 µg/plate, zero-dose 127/118/125) was 985/1059 and the Rev/plate (Salmonella TA100; TA100 +S9, Test 4, 0.5 µg/plate, zero-dose 112/140/115) was 305/312. The Rev/plate (Salmonella TA100; TA100 +S9, Test 4, 1 µg/plate, zero-dose 112/140/115) was 487/469, the Rev/plate (Salmonella TA100; TA100 +S9, Test 4, 2.5 µg/plate, zero-dose 112/140/115) was 976/966 and the Rev/plate (Salmonella TA100; TA100 +S9, Test 4, 5 µg/plate, zero-dose 112/140/115) was 1368/1275. The Rev/plate (Salmonella TA100; TA100 +S9, Test 5, 0.5 µg/plate, zero-dose 102/119/99) was 269/235, the Rev/plate (Salmonella TA100; TA100 +S9, Test 5, 1 µg/plate, zero-dose 102/119/99) was 430/375 and the Rev/plate (Salmonella TA100; TA100 +S9, Test 5, 2.5 µg/plate, zero-dose 102/119/99) was 865/878. For the same compound, the Rev/plate (Salmonella TA100; TA100 +S9, Test 5, 5 µg/plate, zero-dose 102/119/99) was 1150/1115, the “Times more mutagenic for base-substitution mutation than the parent P[4,3-b]T” value (Salmonella TA100; base-substitution strains (TA100, TA104), Table 2) was 10–20 times and the “Mutagenic potency, Revertants/µg ± S.E., TA100” value (Salmonella TA100; plate-incorporation, +S9) was 274 ± 37 rev/µg. For the same compound, the “Mutagenicity call TA100” value (Salmonella TA100; plate-incorporation, +S9) was “(+) (Called mutagenic (+) based on showing reproducible, dose-related increases in rev/plate that reached or exceeded 2-fold relative to zero-dose controls)” and the “Stable adducts/10^8 nucleotides ± S.E” value [2] was 0.650 ± 0.045 adducts/10^8 nucleotides.

From publication PMC2819846 (Mutation research, 2008)
